Experimental data taken from patent US12527831B2, “Skin care compositions comprising synergistic blend of sacred lotus and tea plant or sacred lotus and German Chamomile and cosmetic applications thereof” (ISP INVESTMENTS LLC, priority 2019, dated 2026).

Tested on: IL-1α
Assay: Inhibition of IL-1α induced by SDS in cultured epidermal keratinocytes (ELISA)
Format: cell-based
Conditions: Homo sapiens, Keratinocyte; anti-inflammatory benchmark, HEK; read-out: IC50 in inhibiting SDS-induced IL-1α
Procedure: Normal human adult epidermal keratinocytes (HEK) and all cell culture supplies were obtained from Life Technologies Co. (Carlsbad, CA, USA). The cells were grown and then maintained in keratinocyte basal medium 154 ([…]) with added human keratinocyte growth supplements (HKGS) at 37° C. in an atmosphere of 5% CO2 and used between passages 2 to 4. For the experiments, HEK cells were trypsinized, seeded in 96-well plates, and grown to 80% confluence. Specific concentrations of SDS were used for induction of chemokines and cytokines in the cultured HEK cells. IL-1α was induced with 25 μg/mL SDS. The cells were exposed for 16 hours to either SDS alone, or in combination with test articles at various concentrations in triplicates. After incubation, HEK cell supernatants were collected, and levels of interleukins were quantified using Quantikine® ELISA kits from R&D Systems Inc. IL-1α was quantified with catalogue number SLA50 kit. Percent (%) inhibition of IL-1α by the test articles were calculated by comparing to controls from non-SDS-induced cells considered as 0% and from SDS-induced cells considered as 100%. LDH assay using CytoscanTM LDH Assay kit (G-Biosciences Cat. No. 786-324) was performed on all HEK culture supernatants to make sure all tested concentrations had no cytotoxicity, and Kit-supplied lysis buffer was used as positive control.

SMILES: CC(=O)Oc1ccccc1C(=O)O [Aspirin]
- IC50: 230 µg/mL
